# What was measured:
# pancreatic progenitors = test: Beta cell differentiation from human pluripotent stem cells, flow cytometry of C-peptide and NKX6.1 positive cells; type: cell-based
# Description: (§1) Beta cells differentiated from human pluripotent stem cell lines as described in Example 2 (Sui et al., 2018b). Indicated compounds that function as cell cycle inhibitors were added individually from day 15 to day 27 with concentration listed below:
# The DNA replication inhibitors used in this study: 0.1 μM, 0.5 μM and 1 μM Aphidicolin (A0781, Sigma-Aldrich); 2.5 μM Cisplatin (232120, EMD Millipore); 100 μM Ciprofloxacin (S2027, Selleck Chemicals); 10 μM Pyridostatin (S7444, Selleck Chemicals); 10 μM E2F Inhibitor (324461, EMD Millipore); 0.05 μM A485 (6387, Tocris); 2 μM RL5a (SML2187, Sigma-Aldrich); and 2 μM Etoposide (E55500, Research Products International). Indicated compounds were added individually from day 15 to day 27 with indicated concentration.
# The beta cell clusters were dissociated using TrypLE™ Express into single cells. Cells were fixed with 4% PFA for 10 min and followed by permeabilization at −20° C. with cold methanol for 10 min. Primary antibodies were added at a dilution of 1:100 in autoMACs Rinsing Solution (Cat. No. 130-091-222, Miltenyi Biotec) containing 0.5% BSA at 4° C. for 1 hour. Secondary antibodies were added at a dilution of 1:500 at room temperature for 1 hour. The cells were filtered with BD Falcon 12×75 mm tube with cell strainer cap (Cat. No. 352235, BD) and subsequently analyzed by flow cytometer. Data were analyzed using Flowjo software. Negative controls were performed by only adding secondary antibodies.
# Aphidicolin (APH), a DNA polymerase inhibitor, was used to inhibit DNA replication (Koundrioukoff et al., 2013). […] The insulin expressing cells were evenly distributed in the islet-like clusters with high percentage indicated by the expression of GFP, whereas some parts of the clusters in control remained GFP negative (FIG. 1D).
# [1] = tested on: iPSC lines 1018E and 1023A; test: Beta cell differentiation in iPSC lines with different differentiation potentials, C-peptide positive cells; type: cell-based, human
# Description: Human pluripotent stem cells were cultured and maintained in feeder-free plates with stemflex medium as described. Three cell lines were involved in this study as shown in Table 2: MEL1 is human embryonic stem cell line; 1023A is a human induced pluripotent stem cell line reprogrammed from a skin fibroblast biopsied of a healthy control; and 1018E is a human induced pluripotent stem cell line reprogrammed from a skin fibroblast biopsied from a type 1 diabetes patient. All human subjects research was reviewed and approved by the Columbia University Institutional Review Board, and the Columbia University Embryonic Stem Cell Committee.
# as §1
# The beta cell clusters were dissociated using TrypLE™ Express into single cells. Cells were fixed with 4% PFA for 10 min and followed by permeabilization at −20° C. with cold methanol for 10 min. […] The cells were filtered with BD Falcon 12×75 mm tube with cell strainer cap (Cat. No. 352235, BD) and subsequently analyzed by flow cytometer. Data were analyzed using Flowjo software. […]
# STZ-treated mice = test: Protection from diabetes after ablation of mouse beta cells by streptozotocin, glucose tolerance test; type: in vivo
# Description: The human C-peptide levels in mouse serum were measured every two weeks in the fed state. Intraperitoneal glucose tolerance test was performed by fasting overnight and injecting 2 g/kg D-glucose solution at 2 weeks after mouse beta cells were ablated with one high dose (150 mg/kg) Streptozocin (Cat. No. S0130-1G, Sigma-Aldrich). Blood was collected in heparin-coated tube at fed state, fasting and 30 min after glucose injection. Plasma were collected by centrifuging tubes at 2000 g for 15 minutes at 4° C. The supernatants were collected for C-peptide and insulin detection with Mercodia M-Plex™ ARRAY Chemiluminescent Mercodia Beta Kit. Blood glucose levels was measured at fed state, fasting and every 30 minutes after glucose injection for 2 hours.
# The ability of APH treated cells to protect mice from diabetes was determined after eliminating endogenous mouse beta cells by streptozotocin (STZ). STZ ablates mouse beta cells but is not toxic to human beta cells at the concentrations used. After STZ treatment, the blood glucose levels were monitored and grafted beta cells were challenged with high glucose to check their function. The blood glucose levels remained in the normal range over time in 3 out of 4 mice (FIG. 7E). Mice were tolerant to glucose and normalized blood glucose levels within 15 min of glucose injection (FIG. 7F). The secretion of human C-peptide and insulin decreased after fasting and increased after glucose injection (FIG. 7G).
# [2] = APH added d15-d20, d20-d27 or d15-d27, read at day 27, versus control
structure (smiles),measurement,setting,value
"C[C@@]1(CO)[C@H](O)CC[C@@]2(C)[C@H]1CC[C@H]1C[C@@H]3C[C@@]12CC[C@]3(O)CO [APH, Aphidicolin]",variability of beta cell differentiation,pancreatic progenitors,reduced
same,"percentage of c-peptide and NKX6.1 positive cells, comparison of concentrations","pancreatic progenitors; 1 μM, d15-d27, compared with 0.1 μM and 0.5 μM",highest percentage
same,proportion of C-peptide and NKX6.1 dual positive cells,pancreatic progenitors; [2],increased
same,proportion of C-peptide positive cells,pancreatic progenitors; [2],increased
same,"differentiation toward C-peptide and NKX6.1 positive cells, comparison of treatment windows",pancreatic progenitors; APH added from day 15 to day 27,most effective
same,C-peptide positive cells in cultures,pancreatic progenitors; all n=12 independent differentiation experiments,more than 50%
same,"effectiveness to induce differentiation of pancreatic progenitors to C-peptide positive cells, comparison within panel",pancreatic progenitors; day 27,most effective
same,percentage of C-peptide positive cells,"[1]; both cell lines 1018E and 1023A, after APH treatment versus control",significantly upregulated
same,average percentage of C-peptide positive cells,"[1]; cell line 1018E (differentiates poorly), after APH treatment",38%
same,mice whose blood glucose levels remained in the normal range over time,"STZ-treated mice; after STZ treatment, mice transplanted with APH treated cells",3 out of 4
same,secretion of human C-peptide and insulin,STZ-treated mice; after fasting,decreased
same,secretion of human C-peptide and insulin,STZ-treated mice; after glucose injection,increased
same,time to normalized blood glucose levels after glucose injection,"STZ-treated mice; glucose tolerance test, STZ-treated mice",≤ 15 min

# Reference: patent publication US12605407B2, “Methods to induce terminal differentiation in stem cells by interfering with DNA replication, methods of inducing pancreatic differentiation, and differentiated cells obtained thereof” (priority 2018, dated 2026)
